# Article PMC8878452, “A Tale of Toxin Promiscuity: The Versatile Pharmacological Effects of Hcr 1b-2 Sea Anemone Peptide on Voltage-Gated Ion Channels” (Marine Drugs, 2022)
# “Also recorded” adds a separate entry of the source. Bridges are numbered along the chain shown (N, C = ends). Where no end group is shown, it is not given here.
# Experiments:
# rKv1.1 = assay: TEVC, Kv1.1 in Xenopus oocytes; format: cell-based, rat
# Excerpt: (§1) For the expression of Kv channels (rKv1.1, rKv1.2, rKv1.3, rKv1.4, rK1.5, rKv1.6, hKv2.1, hKv3.1, rKv4.2, hKv7.1, hKv7.2/7.3, hKv7.4, KQT1 (from the roundworm Caenorhabditis elegans), hKv10.1 (hEAG1), hKv11.1 (hERG1), and Shaker, from Drosophila melanogaster), Nav channels (rNav1.1, rNav1.2, rNav1.3, rNav1.4, hNav1.5, mNav1.6, hNav1.7, hNav1.8, and BgNav (from the cockroach Blattella germanica), as well as the hβ1 and rβ1 subunits, and Cav channels (rCav3.1, hCav3.2, and rCav3.3) in Xenopus oocytes, the linearized plasmids were transcribed using the T7 or SP6 mMESSAGEmMACHINE transcription kit (Ambion, Austin, TX, USA). Mature female animals were purchased from Nasco (Fort Atkinson, WI, USA) and were housed in the Aquatic Facility (KU Leuven) in compliance with the regulations of the European Union (EU) concerning the welfare of laboratory animals as declared in Directive 2010/63/EU. The use of X. laevis oocytes was approved by the Animal Ethics Committee of the KU Leuven, with the license number P186/2019.
# (§2) Stage V–VI oocytes were collected from anesthetized female X. laevis frog as previously described, with the frogs anesthetized by placement in a 0.1% tricaine solution (amino benzoic acid ethyl ester; Merck, Kenilworth, NJ, USA). Oocyte microinjection was performed using a microinjector (Drummond Scientifc®, Broomall, PA, USA), with a programmed cRNA injection volume of 4–50 nL, depending on channel subtype. The oocytes were incubated in ND96 solution (96 mM NaCl; 2 mM KCl; 1.8 mM CaCl2; 2 mM MgCl2, and 5 mM HEPES, pH 7.4), supplemented with 50 mg/L of gentamicin sulfate.
# (§3) Electrophysiological measurements were performed at room temperature (18–22 °C) using the two-electrode voltage-clamp (TEVC) technique. Data were obtained using a GeneClamp 500 amplifier (Axon Instruments®, Burlingame, CA, USA) and Clampex9 software (Axon Instruments®, USA) was responsible for data acquisition and storage. Glass micropipettes were produced using glass capillaries (borosilicate WPI 1B120-6) and drawn in a WPI (World Precision Instruments®, Sarasota, FL, USA) manual stretcher. The bath and perfusion solutions were either the previously described ND96 (Nav and Kv channels) or calcium-free ND96 supplemented with 10 mM BaCl2 (Cav channels).
# (§4) Whole-cell currents of oocytes were recorded 1 to 3 days after RNA injection. The current and voltage electrodes were filled with 3 M KCl, and their resistance was adjusted from 1.0 to 2.5 MΩ. […] The current–voltage relationships were determined by 50 ms step depolarizations between −90 and +65 mV using 5 or 10 mV increments. All electrophysiological data were analyzed following the procedures described by Peigneur et al., 2012 [20].
# (§5) All values were expressed as means ± SEM. […]
# hKv7.1 = assay: TEVC, Kv7.1 in Xenopus oocytes; format: cell-based, human
# Excerpt: as §1, §2, §3
# (§6) Whole-cell currents of oocytes were recorded 1 to 3 days after RNA injection. The current and voltage electrodes were filled with 3 M KCl, and their resistance was adjusted from 1.0 to 2.5 MΩ. Currents were sampled at 20 kHz (Nav channels) and 10 kHz (Kv and Cav channels) and filtered using a four-pole Bessel low-pass Bessel filter at 1 kHz for sodium and […] for potassium and calcium, except for the hERG ion channel in which the currents were filtered at 1 kHz. Leak subtraction was performed using a P/4 protocol. Kv1.x currents were evoked by 500 ms depolarizations to 0 mV, followed by a 500 ms pulse to −50 mV from a holding potential of −90 mV. Kv2.1, Kv3.1, Kv4.2, Kv7.x, and KQT1 currents were elicited by 700 ms pulses to +20 mV from a holding potential of −90 mV. Current traces of the hERG1 channel were elicited by applying a +40 mV prepulse for 2 s, followed by a step of −120 mV for 2 s. […] The current–voltage relationships were determined by 50 ms step depolarizations between −90 and +65 mV using 5 or 10 mV increments. All electrophysiological data were analyzed following the procedures described by Peigneur et al., 2012 [20].
# as §5
# hKv10.1 (hEAG1) = assay: TEVC, Kv10.1 in Xenopus oocytes; format: cell-based, human; conditions: 1 µM, ND96 pH 7.4, 18–22 °C, n ≥ 3
# Excerpt: as §1, with “P186/2019. […]” for “P186/2019.”
# as §4, with “injection.” for “injection. The current and voltage electrodes were filled with 3 M KCl, and their resistance was adjusted from 1.0 to 2.5 MΩ.”
# as §5
# rNav1.2 = assay: TEVC, Nav1.2 in Xenopus oocytes; format: cell-based, rat
# Excerpt: as §1, §2, §3
# (§7) Whole-cell currents of oocytes were recorded 1 to 3 days after RNA injection. The current and voltage electrodes were filled with 3 M KCl, and their resistance was adjusted from 1.0 to 2.5 MΩ. Currents were sampled at 20 kHz (Nav channels) and 10 kHz (Kv and Cav channels) and filtered using a four-pole Bessel low-pass Bessel filter at 1 kHz for sodium and […] for potassium and calcium, except for the hERG ion channel in which the currents were filtered at 1 kHz. Leak subtraction was performed using a P/4 protocol. Kv1.x currents were evoked by 500 ms depolarizations to 0 mV, followed by a 500 ms pulse to −50 mV from a holding potential of −90 mV. Kv2.1, Kv3.1, Kv4.2, Kv7.x, and KQT1 currents were elicited by 700 ms pulses to +20 mV from a holding potential of −90 mV. Current traces of the hERG1 channel were elicited by applying a +40 mV prepulse for 2 s, followed by a step of −120 mV for 2 s. Current traces of hEAG1 were elicited by a 2 s depolarization to 0 mV from a holding potential of −90 mV. Sodium current traces were evoked by a 100 ms depolarization to 0 mV. For Cav channels, current traces were elicited by 700 ms depolarizations to −20 mV from a holding potential of −90 mV. The current–voltage relationships were determined by 50 ms step depolarizations between −90 and +65 mV using 5 or 10 mV increments. All electrophysiological data were analyzed following the procedures described by Peigneur et al., 2012 [20].
# (§8) All values were expressed as means ± SEM. Differences in ionic currents between the control and toxin conditions were compared by a one-way ANOVA, followed by Dunnett’s multiple comparisons test. Differences were considered statistically significant when […].
# rNav1.3 = assay: TEVC, Nav1.3 in Xenopus oocytes; format: cell-based, rat
# Excerpt: as §1, §2, §3, §6, §5
# hNav1.8 = assay: TEVC, Nav1.8 in Xenopus oocytes; format: cell-based, human
# Excerpt: as §1, §2, §3, §7, §8
# rCav3.1 = assay: TEVC, Cav3.1 in Xenopus oocytes; format: cell-based, rat
# Excerpt: as §1, §2, §3, §4, §5
# [1] = test system: T-type voltage-gated calcium channels; assay: TEVC panel of three T-type Cav channels, voltage dependence; format: cell-based; conditions: 1 µM vs control
# Excerpt: as §1, with “P186/2019. […]” for “P186/2019.”
# as §4, with “injection.” for “injection. The current and voltage electrodes were filled with 3 M KCl, and their resistance was adjusted from 1.0 to 2.5 MΩ.”
# as §5
# ASIC = test system: ASIC; design: method as in 2 sources, one per row (each row's own in cited_ref): ref 17 = [17]; PMID 29684594; doi:10.1016/j.peptides.2018.04.013; 17. Kalina R. Gladkikh I. Dmitrenok P. Chernikov O. Koshelev S. Kvetkina A. Kozlov S. Kozlovskaya E. Monastyrnaya M. New APETx-like peptides from sea anemone Heteractis crispa modulate ASIC1a channels ||| ref 22 = [22]; PMID 15044953; doi:10.1038/sj.emboj.7600177; 22. Diochot S. Baron A. Rash L.D. Deval E. Escoubas P. Scarzello S. Salinas M. Lazdunski M. A new sea anemone peptide, APETx2, inhibits ASIC3, a major acid-sensitive channel in sensory neurons EMBO J.; conditions: cited from earlier work
# [2] = 1 µM, TEVC, ND96 pH 7.4, 18–22 °C, n ≥ 3
# [3] = 1 µM, 100 ms depolarization to 0 mV, mean ± SEM, n ≥ 3
# [4] = 1 µM vs control (ND96 Ca2+ free)
sequence,measurement,setting,value
"GTPCKCHGYIGVYWFMLAGCPNGYGYNLSCPYFLGICCVKK (disulfide 4-37, 6-30, 20-38 (inferred)) [Hcr 1b-2]","gating-modifier effect (voltage-current relationship), Kv1.1",rKv1.1; 1 µM,non-significant gating-modifier effect
same,"Shift in Vhalf activation, Kv1.1",rKv1.1; 1 µM vs control (ND96),−4.8 mV
same,"effect on potassium current, Kv1.1",rKv1.1; [2],activation
same,"Vhalf activation, Kv1.1","rKv1.1; 1 µM, control (ND96) −13.8 ± 0.3, mean ± SEM",−18.6 ± 0.3 mV
same,"gating-modifier effect (voltage-current relationship), Kv7.1",hKv7.1; 1 µM,stronger shift
same,"Shift in Vhalf activation, Kv7.1",hKv7.1; 1 µM vs control (ND96),6.4 mV
same,"activity (inhibition of current), Kv7.1","hKv7.1; 1 µM, 700 ms pulse to +20 mV from −90 mV, mean ± SEM, n ≥ 3",36.2 ± 1.3%
same,"effect on potassium current, Kv7.1",hKv7.1; [2],inhibition; also recorded: inhibits
same,"Vhalf activation, Kv7.1","hKv7.1; 1 µM, control (ND96) 5.8 ± 0.4, mean ± SEM",12.2 ± 0.6 mV
same,"effect on potassium current, Kv10.1",hKv10.1 (hEAG1),not active
same,"effect on activation or inactivation, Nav1.2",rNav1.2; 1 µM,no significant effect
same,"Shift in Vhalf activation, Nav1.2",rNav1.2; 1 µM vs control (ND96),3.7 mV
same,"Shift in Vhalf inactivation, Nav1.2",rNav1.2; 1 µM vs control (ND96),−1.1 mV
same,"reduction of peak amplitude (INa), Nav1.2",rNav1.2; [3],52.8 ± 7.9%
same,"Vhalf activation, Nav1.2","rNav1.2; 1 µM, control (ND96) −19.2 ± 0.1, mean ± SEM, n ≥ 3",−15.5 ± 0.2 mV
same,"Vhalf inactivation, Nav1.2","rNav1.2; 1 µM, control (ND96) −33.6 ± 0.4, mean ± SEM, n ≥ 3",−34.7 ± 0.6 mV
same,"Shift in Vhalf activation, Nav1.3",rNav1.3; 1 µM vs control (ND96),5.3 mV
same,"Shift in Vhalf inactivation, Nav1.3",rNav1.3; 1 µM vs control (ND96),−3.4 mV
same,"inhibition of peak amplitude (INa), Nav1.3",rNav1.3; [3],11.2 ± 1.8%
same,"Vhalf activation, Nav1.3","rNav1.3; 1 µM, control (ND96) −21.2 ± 0.1, mean ± SEM, n ≥ 3",−15.9 ± 0.1 mV
same,"Vhalf inactivation, Nav1.3","rNav1.3; 1 µM, control (ND96) −29.9 ± 0.1, mean ± SEM, n ≥ 3",−33.3 ± 0.1 mV
same,"effect on activation or inactivation, Nav1.8",hNav1.8; 1 µM,no significant effect
same,"Shift in Vhalf activation, Nav1.8",hNav1.8; 1 µM vs control (ND96),−0.3 mV
same,"Shift in Vhalf inactivation, Nav1.8",hNav1.8; 1 µM vs control (ND96),−1.3 mV
same,"reduction of peak amplitude (INa), Nav1.8",hNav1.8; [3],18.5 ± 1.9%
same,"Vhalf activation, Nav1.8","hNav1.8; 1 µM, control (ND96) −2.3 ± 0.1, mean ± SEM, n ≥ 3",−2.6 ± 0.1 mV
same,"Vhalf inactivation, Nav1.8","hNav1.8; 1 µM, control (ND96) −35.6 ± 0.4, mean ± SEM, n ≥ 3",−36.9 ± 0.5 mV
same,"Shift in Vhalf activation, Cav3.1",rCav3.1; [4],−0.2 mV
same,"Shift in Vhalf inactivation, Cav3.1",rCav3.1; [4],−2.3 mV
same,"Vhalf activation, Cav3.1","rCav3.1; 1 µM, control (ND96 Ca2+ free) −41.0 ± 0.1, mean ± SEM, n ≥ 3",−41.2 ± 0.1 mV
same,"Vhalf inactivation, Cav3.1","rCav3.1; 1 µM, control (ND96 Ca2+ free) −58.4 ± 0.2, mean ± SEM, n ≥ 3",−60.7 ± 0.2 mV
same,"changes in voltage–current relationship, Cav3.1–3.3 activation and inactivation",[1],insignificant changes
same,ASIC inhibition,ASIC,ASIC inhibitors
